Measured values as given in patent US5314904A (priority 1991, dated 1994).
In brackets after ≈: the same amount, converted by molar mass. Read-outs that look alike come from different tables or passages of the source.

How the values were obtained:
Mobiluncus spp. = test: MIC in vitro, Mobiluncus spp. (NCCLS M11-T2, agar Wilken-Chalgren); assay type: cell-based; conditions: for MIC: read-out: MIC Range of Concentration Value
Source text: (§1) Forty strains of Bacteroides bivius-disiens, 23 strains of Gardnerella vaginalis, 31 strains of the species Lactobacillus and 13 strains of Mobiluncus, 35 strains (from Iowa) and 25 strains (from Manitoba) of Neisseria gonorrhoeae, 25 strains of Haemophilus ducreyi and 6 strains of Chlamydia trachomatis have been analyzed.
(§2) Forty strains of Bacteroides bivius-disiens, 23 strains of Gardnerella vaginalis, 31 strains of Lactobacillus spp., 13 strains of Mobiluncus spp., 6 strains of Chlamydia trachomatis, 60 strains of Neisseria gonorrhoeae and 25 strains of Haemophilus ducreyi were obtained by culture collections supplied from: […]

Lactobacillus spp. = test: MIC in vitro, Lactobacillus spp. (NCCLS M11-T2, agar Wilken-Chalgren); assay type: cell-based; conditions: for MIC: read-out: MIC Range of Concentration Value
Source text: as §1, §2

Gardnerella vaginalis = test: MIC in vitro, Gardnerella vaginalis (NCCLS M11-T2, agar Wilken-Chalgren); assay type: cell-based; conditions: for MIC: read-out: MIC Range of Concentration Value
Source text: as §1, §2

[1] = test system: Bacteroides bivius-disiens; test: MIC in vitro, Bacteroides bivius-disiens (NCCLS M11-T2, agar Wilken-Chalgren); assay type: cell-based; conditions: 40 strains; for MIC: read-out: MIC Range of Concentration Value
Source text: as §1, §2

[2] = cited from earlier work
Ureaplasma urealyticum = test: MIC in vitro, Ureaplasma urealyticum (Hoban et al. method); assay type: cell-based
Source text: (§3) The determination of the MIC with respect to Neisseria gonorrhoeae has been carried out according to the NCCLS M7-A2 method, while the determination of th MIC with respect to Chlamydia trachomatis, Mycoplasma hominis, Ureaplasma urealyticum and Haemophilus ducrey has been carried out according to Hoban D. et al. "In vitro activity of lomefloxacin against Chlamydia trachomatis, Neisseria gonorrhoeae, Haemophilus ducreyi, Mycoplasma hominis and Ureaplasma urealyticum." Diagn. Microbiol. Infect. Dis., 12, 83S-86S (1989).

Neisseria gonorrhoeae = test: MIC in vitro, Neisseria gonorrhoeae (NCCLS M7-A2); assay type: cell-based
Source text: as §1
(§4) Forty strains of Bacteroides bivius-disiens, 23 strains of Gardnerella vaginalis, 31 strains of Lactobacillus spp., 13 strains of Mobiluncus spp., 6 strains of Chlamydia trachomatis, 60 strains of Neisseria gonorrhoeae and 25 strains of Haemophilus ducreyi were obtained by culture collections supplied from:
as §3

Chlamydia trachomatis = test: MIC in vitro, Chlamydia trachomatis (Hoban et al. method); assay type: cell-based
Source text: (§5) Forty strains of Bacteroides bivius-disiens, 23 strains of Gardnerella vaginalis, 31 strains of the species Lactobacillus and 13 strains of Mobiluncus, 35 strains (from Iowa) and 25 strains (from Manitoba) of Neisseria gonorrhoeae, 25 strains of Haemophilus ducreyi and 6 strains of Chlamydia trachomatis have been analyzed. The determination of the minimum inhibitory concentration on the strains of the four types of anaerobic bacteria has been carried out according to NCCLS M11-T2 method (National Committee for Clinical Laboratory Standards. Methods for antimicrobial testing of anaerobic bacteria--second edition: Tentative Standard. NCCLS M11-T2, Villanova, Pa. NCCLS; 1989) on agar Wilken-Chalgren (Difco Laboratories, Detroit, Mich.) to which blood has been added.
as §4, §3

Haemophilus ducreyi = test: MIC in vitro, Haemophilus ducreyi (Hoban et al. method); assay type: cell-based
Source text: as §5
The strains of Haemophilus ducreyi have been grown on chocolate agar for 24 hours at 35° C. in an atmosphere of carbon dioxide. After each material has been isolated, it is applied on chocolate agar containing appropriate dilution of antibiotic (Hoban D. et al. "In vitro activity of lomefloxacin against Chlamydia trachomatis, Neisseria gonorrhoeae, Haemophilus ducreyi, Mycoplasma hominis and Ureaplasma urealyticum". Diagn. Microbiol. Infect. Dis. 12, 83S-86S, 1989). The plates are incubated in an atmosphere containing carbon dioxide with increasing moisture at 35° C. for 48 hours.
as §2

Mycoplasma hominis = test: MIC in vitro, Mycoplasma hominis (Hoban et al. method); assay type: cell-based; conditions: Metamycoplasma hominis
Source text: as §3

Structure (SMILES): CC1(C)S[C@@H]2[C@H](NC(=O)[C@H](N)c3ccccc3)C(=O)N2[C@H]1C(=O)O [Ampicillin]
- MIC50 (Mobiluncus spp.; 13 strains): ≤ 0.5 µg/mL
- MIC90 (Mobiluncus spp.; 13 strains, read-out: MIC 90%): 4 µg/mL (≈ 11.4 µM)
- MIC (Mobiluncus spp.; 13 strains): 0.5 to 4 µg/mL (≈ 1.43 to 11.4 µM)
- MIC50 (Lactobacillus spp.; 31 strains): ≤ 0.5 µg/mL
- MIC90 (Lactobacillus spp.; 31 strains, read-out: MIC 90%): 1 µg/mL (≈ 2.86 µM)
- MIC (Lactobacillus spp.; 31 strains): 0.5 to 2 µg/mL (≈ 1.43 to 5.72 µM)
- MIC90 (Gardnerella vaginalis): < 0.5 µg/mL
- MIC50 (Gardnerella vaginalis; 23 strains): ≤ 0.5 µg/mL
- MIC (Gardnerella vaginalis; 23 strains): 0.5 to 2 µg/mL (≈ 1.43 to 5.72 µM)
- MIC50 [1]: 4 µg/mL (≈ 11.4 µM)
- MIC90 [1]: 64 µg/mL (≈ 183 µM)

Structure (SMILES): CCC[C@@H]1C[C@@H](C(=O)N[C@@H]([C@H]2O[C@H](SC)[C@H](O)[C@@H](O)[C@H]2O)[C@H](C)Cl)N(C)C1 [Clindamycin]
- MIC50 (Mobiluncus spp.; 13 strains): ≤ 0.06 µg/mL
- MIC90 (Mobiluncus spp.; 13 strains, read-out: MIC 90%): < 0.06 µg/mL
- MIC (Mobiluncus spp.; 13 strains): ≤ 0.06 µg/mL
- MIC50 (Lactobacillus spp.; 31 strains): 0.25 µg/mL (≈ 0.588 µM)
- MIC90 (Lactobacillus spp.; 31 strains, read-out: MIC 90%): 4 µg/mL (≈ 9.41 µM)
- MIC (Lactobacillus spp.; 31 strains): 0.06 to 4 µg/mL (≈ 0.141 to 9.41 µM)
- MIC50 (Gardnerella vaginalis; 23 strains): ≤ 0.06 µg/mL
- MIC90 (Gardnerella vaginalis; 23 strains, read-out: MIC 90%): < 0.06 µg/mL
- MIC (Gardnerella vaginalis; 23 strains): 0.06 to 0.25 µg/mL (≈ 0.141 to 0.588 µM)
- side effects ([2]; compared with drugs currently used): serious side effects, particularly on the gastrointestinal tract with serious forms of diarrhea and pseudo-membranous colitis that can even lead to the death of the patient
- MIC50 [1]: ≤ 0.06 µg/mL
- MIC90 [1]: < 0.06 µg/mL
- MIC [1]: ≤ 0.06 µg/mL

Structure (SMILES): Cc1ncc([N+](=O)[O-])n1CCO [Metronidazole]
- MIC90 (Mobiluncus spp.): > 16 µg/mL
- MIC50 (Mobiluncus spp.; 13 strains): > 16 µg/mL
- MIC90 (Lactobacillus spp.): > 16 µg/mL
- MIC50 (Lactobacillus spp.; 31 strains): > 16 µg/mL
- MIC (Lactobacillus spp.; 31 strains): > 16 µg/mL
- MIC90 (Gardnerella vaginalis): > 16 µg/mL
- MIC50 (Gardnerella vaginalis; 23 strains): > 16 µg/mL
- side effects ([2]; in vivo): serious side effects particularly on the blood and on the central nervous system
- MIC50 [1]: 2 µg/mL (≈ 11.7 µM)
- MIC90 [1]: 4 µg/mL (≈ 23.4 µM)
- MIC [1]: 0.5 to 8 µg/mL (≈ 2.92 to 46.7 µM)

Structure (SMILES): CO[C@H]1/C=C/O[C@@]2(C)Oc3c(C)c(O)c4c(O)c(c5c(nc6cc(C)ccn65)c4c3C2=O)NC(=O)/C(C)=C\C=C\[C@H](C)[C@H](O)[C@@H](C)[C@@H](O)[C@@H](C)[C@H](OC(C)=O)[C@@H]1C [Rifaximin, 4-desoxy-4'-methyl-pyrido [1'2':1.2] imidazo [5.4-c] rifamycin SV]
- MIC50 (Mobiluncus spp.; 13 strains): ≤ 0.03 µg/mL
- MIC90 (Mobiluncus spp.; 13 strains, read-out: MIC 90%): < 0.03 µg/mL
- MIC (Mobiluncus spp.; 13 strains): ≤ 0.03 µg/mL
- MIC90 (Lactobacillus spp.): 0.5 µg/mL (≈ 0.636 µM)
- MIC50 (Lactobacillus spp.; 31 strains): 0.12 µg/mL (≈ 0.153 µM)
- MIC (Lactobacillus spp.; 31 strains): 0.3 to 1 µg/mL (≈ 0.382 to 1.27 µM)
- MIC50 (Gardnerella vaginalis; 23 strains): 0.5 µg/mL (≈ 0.636 µM)
- MIC90 (Gardnerella vaginalis; 23 strains, read-out: MIC 90%): 1 µg/mL (≈ 1.27 µM)
- MIC (Gardnerella vaginalis; 23 strains): 0.25 to 1 µg/mL (≈ 0.318 to 1.27 µM)
- MIC (Ureaplasma urealyticum): ≥ 64 µg/mL
- MIC50 (Ureaplasma urealyticum; 25 strains): 64 µg/mL (≈ 81.4 µM)
- MIC90 (Ureaplasma urealyticum; 25 strains): > 64 µg/mL
- MIC90 (Neisseria gonorrhoeae): 16 µg/mL (≈ 20.4 µM)
- MIC50 (Neisseria gonorrhoeae; 60 strains): 0.25 µg/mL (≈ 0.318 µM)
- susceptibility (Chlamydia trachomatis): has shown susceptibility to rifaximin
- MIC90 (Chlamydia trachomatis; Chlamydia trachomatis, 6 strains): < 20 µg/mL
- MIC (Chlamydia trachomatis; Chlamydia trachomatis, 6 strains, read-out: MIC Range of Concentration Value): 10 to 20 µg/mL (≈ 12.7 to 25.4 µM)
- MIC (Chlamydia trachomatis; Chlamydia trachomatis, read-out: M.I.C.): > 20 µg/mL
- MIC50 [1]: 0.12 µg/mL (≈ 0.153 µM)
- MIC90 [1]: 0.25 µg/mL (≈ 0.318 µM)
- MIC [1]: 0.03 to 0.5 µg/mL (≈ 0.0382 to 0.636 µM)
- MIC90 (Haemophilus ducreyi): 0.5 µg/mL (≈ 0.636 µM)
- MIC50 (Haemophilus ducreyi; 25 strains): 0.25 µg/mL (≈ 0.318 µM)
- MIC (Haemophilus ducreyi; 25 strains, read-out: MIC Range of Concentration Value): 0.03 to 0.5 µg/mL (≈ 0.0382 to 0.636 µM)
- MIC50 (Mycoplasma hominis; 20 strains): 64 µg/mL (≈ 81.4 µM)
- MIC90 (Mycoplasma hominis; 20 strains): ≥ 64 µg/mL
- MIC (Mycoplasma hominis; 20 strains, read-out: MIC Range of Concentration Value): ≥ 64 µg/mL
- MIC (Mycoplasma hominis; read-out: M.I.C.): ≥ 64 µg/mL
